Measured values as given in ChEMBL document CHEMBL1201862, “PubChem BioAssay data set” (2004).
Active and inactive are the calls of the source. How the calls were made is not given here.

What was measured:
[1] = target: T1, Exodeoxyribonuclease V (Escherichia coli (strain K12), UniProt P04993+P07648+P08394); experiment: E. coli RecBCD inhibitors, dose response, counter-screen for AddAB inhibitor project, absorbance, V66 E. coli, mutant T4 phage (AID 492957); assay type: functional, cell-based, Escherichia coli str. K-12 substr. MG1655
T1 sequence (P04993 whole entry): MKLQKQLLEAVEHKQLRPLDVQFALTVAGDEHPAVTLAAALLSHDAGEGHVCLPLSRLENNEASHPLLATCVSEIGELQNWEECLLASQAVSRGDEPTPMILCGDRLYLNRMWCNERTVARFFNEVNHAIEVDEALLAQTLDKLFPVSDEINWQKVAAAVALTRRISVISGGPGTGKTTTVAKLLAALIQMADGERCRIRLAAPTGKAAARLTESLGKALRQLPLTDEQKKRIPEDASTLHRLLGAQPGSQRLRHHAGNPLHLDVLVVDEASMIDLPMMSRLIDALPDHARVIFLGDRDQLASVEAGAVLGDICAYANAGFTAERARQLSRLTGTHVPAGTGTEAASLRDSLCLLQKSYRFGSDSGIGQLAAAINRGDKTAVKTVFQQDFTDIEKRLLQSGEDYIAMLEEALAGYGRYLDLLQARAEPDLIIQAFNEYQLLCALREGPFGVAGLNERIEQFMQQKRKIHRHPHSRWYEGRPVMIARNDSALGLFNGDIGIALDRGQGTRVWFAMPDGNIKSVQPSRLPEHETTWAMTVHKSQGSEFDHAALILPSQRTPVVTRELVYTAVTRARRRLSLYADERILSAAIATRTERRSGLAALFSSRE
T1 sequence (P07648 whole entry): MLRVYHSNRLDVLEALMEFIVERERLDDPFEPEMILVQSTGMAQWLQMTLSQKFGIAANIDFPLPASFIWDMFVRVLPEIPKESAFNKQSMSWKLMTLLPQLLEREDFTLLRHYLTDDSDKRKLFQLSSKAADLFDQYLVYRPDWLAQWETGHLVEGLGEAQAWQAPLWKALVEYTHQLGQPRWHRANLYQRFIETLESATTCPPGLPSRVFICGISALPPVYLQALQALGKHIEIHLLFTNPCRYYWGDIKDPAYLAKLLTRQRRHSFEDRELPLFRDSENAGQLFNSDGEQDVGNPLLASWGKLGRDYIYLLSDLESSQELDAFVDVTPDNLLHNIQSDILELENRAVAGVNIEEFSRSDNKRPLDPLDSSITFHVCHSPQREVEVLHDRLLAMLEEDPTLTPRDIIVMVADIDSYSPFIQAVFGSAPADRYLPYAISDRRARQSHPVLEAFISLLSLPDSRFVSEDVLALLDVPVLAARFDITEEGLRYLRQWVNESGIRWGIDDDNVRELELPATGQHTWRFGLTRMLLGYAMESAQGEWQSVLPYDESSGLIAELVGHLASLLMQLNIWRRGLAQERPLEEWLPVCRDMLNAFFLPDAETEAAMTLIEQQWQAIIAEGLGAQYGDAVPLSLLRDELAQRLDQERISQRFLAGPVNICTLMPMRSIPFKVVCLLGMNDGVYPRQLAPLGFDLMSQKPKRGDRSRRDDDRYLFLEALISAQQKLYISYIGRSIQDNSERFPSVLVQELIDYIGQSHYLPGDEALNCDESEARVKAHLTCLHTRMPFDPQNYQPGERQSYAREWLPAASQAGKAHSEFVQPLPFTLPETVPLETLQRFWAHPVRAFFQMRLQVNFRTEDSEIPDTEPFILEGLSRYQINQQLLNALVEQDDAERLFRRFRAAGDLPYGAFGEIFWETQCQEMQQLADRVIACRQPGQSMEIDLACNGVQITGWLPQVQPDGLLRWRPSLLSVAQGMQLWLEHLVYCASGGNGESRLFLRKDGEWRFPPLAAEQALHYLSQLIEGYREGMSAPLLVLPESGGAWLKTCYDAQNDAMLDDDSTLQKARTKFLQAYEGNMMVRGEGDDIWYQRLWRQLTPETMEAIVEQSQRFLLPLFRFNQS
T1 sequence (P08394 whole entry): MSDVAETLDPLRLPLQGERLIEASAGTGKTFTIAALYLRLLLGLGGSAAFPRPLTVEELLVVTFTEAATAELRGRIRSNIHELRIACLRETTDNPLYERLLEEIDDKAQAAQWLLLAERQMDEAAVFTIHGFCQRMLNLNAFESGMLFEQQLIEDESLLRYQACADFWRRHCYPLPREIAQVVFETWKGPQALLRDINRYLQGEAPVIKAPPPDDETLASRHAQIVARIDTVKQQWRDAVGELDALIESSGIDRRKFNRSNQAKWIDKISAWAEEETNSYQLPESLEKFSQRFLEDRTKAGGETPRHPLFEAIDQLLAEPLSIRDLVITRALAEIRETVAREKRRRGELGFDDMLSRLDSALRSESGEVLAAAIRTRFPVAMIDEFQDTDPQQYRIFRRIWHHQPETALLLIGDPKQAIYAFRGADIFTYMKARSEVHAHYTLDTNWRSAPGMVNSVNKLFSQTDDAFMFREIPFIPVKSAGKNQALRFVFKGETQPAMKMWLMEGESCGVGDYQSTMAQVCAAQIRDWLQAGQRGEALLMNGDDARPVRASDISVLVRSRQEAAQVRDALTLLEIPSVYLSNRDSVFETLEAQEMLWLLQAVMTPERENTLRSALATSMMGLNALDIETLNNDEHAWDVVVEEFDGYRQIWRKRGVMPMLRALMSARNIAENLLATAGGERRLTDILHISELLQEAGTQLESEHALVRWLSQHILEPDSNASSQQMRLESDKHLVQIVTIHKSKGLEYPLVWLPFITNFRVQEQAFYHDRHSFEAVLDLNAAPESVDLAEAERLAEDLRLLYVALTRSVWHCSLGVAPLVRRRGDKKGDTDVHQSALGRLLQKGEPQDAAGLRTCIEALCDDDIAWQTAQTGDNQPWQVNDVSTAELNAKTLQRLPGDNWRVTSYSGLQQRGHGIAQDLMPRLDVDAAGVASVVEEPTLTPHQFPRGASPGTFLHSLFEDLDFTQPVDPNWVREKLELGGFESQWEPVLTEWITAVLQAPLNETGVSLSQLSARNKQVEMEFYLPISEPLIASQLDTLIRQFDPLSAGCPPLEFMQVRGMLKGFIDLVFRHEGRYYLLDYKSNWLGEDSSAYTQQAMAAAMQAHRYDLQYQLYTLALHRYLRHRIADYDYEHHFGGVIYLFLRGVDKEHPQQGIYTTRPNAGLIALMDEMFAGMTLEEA

[2] = target: Polyadenylate-binding protein 1 (Homo sapiens, UniProt P11940); experiment: PABP1 MLLE–PAM2 interaction inhibitors, dose response, miRNA deadenylation inhibitor project, biochemical, fluorescence polarization, Cy5-PAM2 peptide, secondary (AID 602260); assay type: functional; details: read-out: IC50_Mean
Chain of Polyadenylate-binding protein 1 (P11940 whole entry): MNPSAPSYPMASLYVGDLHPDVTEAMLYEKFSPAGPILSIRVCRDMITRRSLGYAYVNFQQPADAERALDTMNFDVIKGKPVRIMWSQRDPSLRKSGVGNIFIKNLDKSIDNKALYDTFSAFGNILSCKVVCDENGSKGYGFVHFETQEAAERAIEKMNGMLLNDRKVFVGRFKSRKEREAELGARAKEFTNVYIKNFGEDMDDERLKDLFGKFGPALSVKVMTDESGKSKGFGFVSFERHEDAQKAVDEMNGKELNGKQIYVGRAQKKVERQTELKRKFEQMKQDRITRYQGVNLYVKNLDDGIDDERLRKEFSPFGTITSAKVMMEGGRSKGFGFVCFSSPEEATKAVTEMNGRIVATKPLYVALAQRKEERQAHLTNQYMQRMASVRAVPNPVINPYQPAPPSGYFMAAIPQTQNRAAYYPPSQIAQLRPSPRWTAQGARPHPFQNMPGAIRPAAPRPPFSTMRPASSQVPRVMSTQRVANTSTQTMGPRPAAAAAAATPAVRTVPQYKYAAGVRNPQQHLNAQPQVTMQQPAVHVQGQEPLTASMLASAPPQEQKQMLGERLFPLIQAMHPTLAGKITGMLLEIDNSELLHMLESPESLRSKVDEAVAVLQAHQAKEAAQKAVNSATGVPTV

Which results are given for `CN1CCc2cc3c(c4c2[C@H]1[C@H](O)c1ccccc1-4)OCO3`?
IC50 [1]: > 119 µM (inactive); IC50 [2]: > 66 µM (inactive)
